Source: patent publication US8278278B2, “Cell proliferation reducing cancer specific PCNA peptides” (Indiana University Research and Technology Corporation, priority 2008, dated 2012)
Entries after “also recorded” stand apart in the source; their conditions may differ. Like-named read-outs stand apart in the source and are kept apart here. Non-standard residues stand in square brackets, D forms with d. Residues, ends and D or L forms follow the SMILES beside them. No end group written: not given here. *: point of attachment. FITC = O=C1OC2(c3ccc(O)cc3Oc3cc(O)ccc32)c2ccc(NC(=S)*)cc21

Experiments:
MCF 7 (breast cancer) = assay: Cell death by flow cytometry in malignant breast cells; type: cell-based; details: 50 μM, 48 hours
Description: The R9-caPeptide was evaluated for cytotoxic effects in non-malignant (MCF 10A) and malignant (MCF 7) breast cells (Table 6). The cells were treated with 50 μM R9-caPeptide for 48 hours and the extent of cell death was evaluated by flow cytometry. […] The significant level of cytotoxicity in breast cancer cells is likely due to enhanced binding interaction of caPeptide with specific DNA repair proteins in these cells, as indicated for example by the observed preferential binding of caPCNA for XPG protein, leading to an inhibition of DNA repair in these cells, and ultimately cell death.

[1] = tested on: U937 monocytic lymphoma cells; assay: Cytotoxicity/apoptosis of R9-linked caPCNA peptides in U937 cells by flow cytometry; type: cell-based; details: 24 hours; for cytotoxic activity / apoptosis: R9 up to 100 μM, caPeptide up to 200 μM; for % cancer cell death: 30 μM of peptide, flow cytometry
Description: First, it was tested whether or not the R9 sequence alone had any cytotoxic effect in U937 cells. The U937 cells were treated with up to 100 μM of the R9 sequence for 24 hours.
Once it was established that the R9 sequence promoted cellular uptake of the peptide, increasing amounts of R9-caPep were added to U937 cells to determine if the peptide's uptake would have any cytotoxic effect.
To verify that the cytotoxicity of the R9-caPep was due to the PCNA peptide sequence itself, a scrambled peptide using the same eight amino acids, R9-Scrambled, was prepared (Table 3).
The cancer associated epitope of PCNA is also part of the flexible IDCL region of PCNA. This region of PCNA is considered to have a disordered structure. Disordered regions in proteins are usually associated with protein-to-protein interaction sites. […] To determine which amino acids in the R9-caPep sequence are necessary for binding of the peptide to these proteins, peptide constructs were generated that mutated each amino acid individually to an alanine (Table 3). Each alanine mutant peptide of caPCNA was used to treat U937 cells for 24 hours. An amino acid that is important to protein binding would presumably show decreased cell cytotoxicity when it is substituted with an alanine. Those amino acids which are not critical for binding could be anticipated to show a cytotoxic level similar to that of the unsubstituted peptide. For a comparison of the potential cytotoxic effect of each of the alanine substituted R9-linked caPeptides, U937 cells were treated with 30 μM of peptide. […] It was observed that peptides containing an alanine substituted at position aa126 or aa133 show little cytotoxic activity and therefore were likely important for the peptide's activity.

[2] = tested on: HCC1937 cells lacking BRCA1; assay: MTT growth inhibition assay, HCC1937 cells lacking BRCA1; type: cell-based; details: for efficacy in MTT assay compared with the other peptides: HCC1937 and HCC1937+wild-type BRCA1 cells, 24 hours
Description: MTT [3-(4,5-dimethylthiazol-2-yl)-2,5-diphenyltetrazolium bromide] assays were conducted with caPeptides at a variety of time points both alone and in combination with a DNA damaging agent e.g., cisplatin in HCC1937 and HCC1937+wild-type BRCA1 cells. The MTT assay is based on the ability of a mitochondrial dehydrogenase enzyme from viable cells to cleave the tetrazolium rings of the pale yellow MTT dye and form dark blue formazan crystals. These formazan crystals are largely impermeable to cell membranes and thus accumulate within healthy cells. Solubilization of the cells by the addition of a detergent results in the liberation and solubilization of the crystals. The number of proliferating cells is directly proportional to the level of formazan product created. The color can then be quantified using a simple colorimetric assay. The results are read on a multiwall scanning spectrophotometer (ELISA reader). The peptides used in these experiments including caPeptide, Q131A ([…] (SEQ ID NO: 5)), and P129A ([…] (SEQ ID NO: 3)) were ordered and obtained from Anaspec (Fremont, Calif.). caPeptide was dissolved in sterile 1× PBS solution to create a 1.5 mM stock concentration. caPeptides with alanine substitutions (e.g., P129A (SEQ ID NO: 3) and Q131A (SEQ ID NO: 5)) were dissolved in sterile 1×PBS solution to create 1.0 mM stock solutions.
MTT assays: The efficacy of caPeptides were tested using the MTT assays: HCC1937 and HCC137+wildtype BRCA1 cells were grown in DMEM 1× (supplemented with 10% fetal bovine serum and 5% penicillin/streptomycin) and were plated at a densities of 5.5×10^3 or 7×10^3, respectively, in 96 well plates (100 μL total volume per well) and allowed to attach overnight in a 37° C. incubator (5% CO2). Then, caPeptide stock solution was diluted to final working concentrations in DMEM 1× (10% fetal bovine serum and 5% penicillin/streptomycin) of 150 μM, 100 μM, 75 μM, 50 μM, and 25 μM. Media was removed from cells and replaced with media containing caPeptide at various concentrations (200 μL total volume per well). Cells were cultured with caPeptide-containing media for 24, 48 or 72 hours. At the appropriate treatment timepoint, 20 μL MTT (5 mg/mL in PBS) reagent was added to each well and plates were incubated for an additional 4 hours. Media/dye solution was then aspirated and 200 μL DMSO was added to each well. Plates were rocked at room temperature for five minutes to dissolve crystals and transferred to an ELISA plate reader. Absorbance was measured at 550 nm. The extent to which caPeptides inhibited cell proliferation was calculated as a percentage of the absorbance in each well containing caPeptide relative to wells containing no caPeptide (negative control) for both HCC1937 and HCC1937+wild-type BRCA1 cells. […]

[3] = tested on: HCC1937+wild-type BRCA1 cells; assay: MTT growth inhibition assay, HCC1937+wild-type BRCA1 cells; type: cell-based
Description: As a genetically matched control, wild-type BRCA1 has been transduced into HCC1937 cells (referred to as HCC1937+wild-type BRCA1). HCC1937+wild-type BRCA1 cells were selected for maintenance of the vector using 1 μg/mL puromycin. All cells in these assays were used at passage numbers <25.
MTT [3-(4,5-dimethylthiazol-2-yl)-2,5-diphenyltetrazolium bromide] assays were conducted with caPeptides at a variety of time points both alone and in combination with a DNA damaging agent e.g., cisplatin in HCC1937 and HCC1937+wild-type BRCA1 cells. […] The color can then be quantified using a simple colorimetric assay. The results are read on a multiwall scanning spectrophotometer (ELISA reader). […]
MTT assays: The efficacy of caPeptides were tested using the MTT assays: HCC1937 and HCC137+wildtype BRCA1 cells were grown in DMEM 1× (supplemented with 10% fetal bovine serum and 5% penicillin/streptomycin) and were plated at a densities of 5.5×10^3 or 7×10^3, respectively, in 96 well plates (100 μL total volume per well) and allowed to attach overnight in a 37° C. incubator (5% CO2). […] Plates were rocked at room temperature for five minutes to dissolve crystals and transferred to an ELISA plate reader. Absorbance was measured at 550 nm. […]

U937 cells [4] = details: 100 nM of doxorubicin alone
U937 cells [5] = assay: cells; details: Homo sapiens, U-937, 24 h
U937 cells [6] = assay: Cellular uptake and nuclear localization by fluorescence microscopy; type: cell-based; details: 10 μM, 24 hours, DAPI overlay
Description: To test cellular uptake and nuclear localization of R9-caPep, an N-terminal fluorescein isothiocyanate (FITC) residue was attached to allow microscopic visualization of the peptide's cellular location. The U937 cells were treated with 10 μM of FITC-R9-caPep for 24 hours. The cells were then collected onto a poly-L-lysine coated slide by cytospin and mounted with a media containing the DNA staining dye 4′-6-Diamidino-2-phenylindole (DAPI), which complexes with double stranded DNA and indicates the location of the nucleus. A Leica DM500 fluorescent microscope was used to visualize the staining.

CC[C@H](C)[C@H](NC(=O)CNC(=O)[C@H](CC(C)C)NC(=O)[C@H](CS)NC(=O)[C@H](CS)NC(=O)[C@@H](CCCNC(=N)N)NC(=O)[C@@H](CCCNC(=N)N)NC(=O)[C@@H](CCCNC(=N)N)NC(=O)[C@@H](CCCNC(=N)N)NC(=O)[C@@H](CCCNC(=N)N)NC(=O)[C@@H](CCCNC(=N)N)NC(=O)[C@@H](CCCNC(=N)N)NC(=O)[C@@H](CCCNC(=N)N)NC(=O)[C@H](N)CCCNC(=N)N)C(=O)N1CCC[C@H]1C(=O)N[C@@H](CCC(=O)O)C(=O)N[C@@H](CCC(N)=O)C(=O)N[C@@H](CCC(=O)O)C(=O)N[C@@H](Cc1ccc(O)cc1)C(=O)O [R9-caPep]
cytotoxicity for malignant breast cells (MCF7) relative to non-malignant breast cells (MCF10A) (MCF 7 (breast cancer)): approximately five times more cytotoxic

CC[C@H](C)[C@H](NC(=O)CNC(=O)[C@@H](N)CC(C)C)C(=O)N1CCC[C@H]1C(=O)N[C@@H](CCC(=O)O)C(=O)N[C@@H](CCC(N)=O)C(=O)N[C@@H](CCC(=O)O)C(=O)N[C@@H](Cc1ccc(O)cc1)C(=O)O [caPeptide] (H-LGIPEQEY-OH)
cytotoxic activity / apoptosis [1]: did not have any cytotoxic activity; also recorded: no increase in apoptosis

N.N.[Cl][Pt][Cl] [cisplatin, reference compound]
IC50 ([2]; HCC1937 cells lacking BRCA1, with R9-PCNA peptide 60 μM, read-out: IC50 value for R9-PCNA peptide (60 μM)+cisplatin): ~20 µM | sensitivity of the cells to cisplatin ([2]; HCC1937 cells, cisplatin alone): relatively resistant | sensitivity of the cells to cisplatin ([3]; HCC1937+wild-type BRCA1 cells, cisplatin alone): relatively resistant | IC50 ([3]; HCC1937 cells with BRCA1, with R9-PCNA peptide 60 μM, read-out: IC50 value for R9-PCNA peptide (60 μM)+cisplatin): ~100 µM

COc1cccc2c1C(=O)c1c(O)c3c(c(O)c1C2=O)C[C@@](O)(C(=O)CO)C[C@@H]3O[C@H]1C[C@H](N)[C@H](O)[C@H](C)O1 [doxorubicin]
cell death (U937 cells [4]): 30% | IC50 (U937 cells [5]; read-out: IC50 of doxorubicin, U937 cells, 24 hours, doxorubicin alone): ~0.14 µM | IC50 (U937 cells [5]; read-out: IC50 of doxorubicin, U937 cells, 24 hours, with 25 μM of R9-caPep): ~0.11 µM

FITC-RRRRRRRRRCCLGIPEQEY ({FITC}-[dR][dR][dR][dR][dR][dR][dR][dR][dR]CCLGIPEQEY; cysteine pairing not given here) [FITC-R9-caPep, R9-caPep with an N-terminal fluorescein isothiocyanate (FITC) residue]
cellular uptake and nuclear localization (U937 cells [6]): internalized by the cells and was accessible to the nucleus

LGIAEQEY [P129A]
efficacy in MTT assay compared with the other peptides [2]: enhanced efficacy in comparison to wild-type peptides

LGIPEAEY [Q131A]
efficacy in MTT assay compared with the other peptides [2]: enhanced efficacy in comparison to wild-type peptides; also recorded: more effective of these peptides tested

RRRRRRRRR [R9, reference compound]
cytotoxic activity / apoptosis [1]: did not promote apoptosis; also recorded: did not cause an increase apoptosis

RRRRRRRRRCCAGIPEQEY [A1-sub. Peptide]
% cancer cell death [1]: 8 ± 9%

RRRRRRRRRCCLAIPEQEY [A2-sub. Peptide]
% cancer cell death [1]: 47 ± 13%

RRRRRRRRRCCLGAPEQEY [A3-sub. Peptide]
% cancer cell death [1]: 21 ± 12%

RRRRRRRRRCCLGIAEQEY [A4-sub. Peptide]
% cancer cell death [1]: 80 ± 7%

RRRRRRRRRCCLGIPAQEY [A5-sub. Peptide]
% cancer cell death [1]: 45 ± 14%

RRRRRRRRRCCLGIPEAEY [A6-sub. Peptide]
% cancer cell death [1]: 93 ± 7%

RRRRRRRRRCCLGIPEQAY [A7-sub. Peptide]
% cancer cell death [1]: 88 ± 4%

RRRRRRRRRCCLGIPEQEA [A8-sub. Peptide]
% cancer cell death [1]: 7 ± 6%
